{
  "source": "ChEMBL document CHEMBL2384927",
  "about": "“Development of Unsymmetrical Dyads As Potent Noncarbohydrate-Based Inhibitors against Human β-N-Acetyl-d-hexosaminidase” (ACS Med Chem Lett, 2013)",
  "note": "Activity calls are given as the source filed them. The calls are words filed in the database; no cut-off is given here.",
  "data": [
    {"target": "T1, Beta-N-acetyl-D-hexosaminidase-A/B (Homo sapiens) (UniProt P07686+P06865)", "test": "Competitive inhibition of human beta-N-acetyl-D-hexosaminidase-A/B using 4-Methylumbelliferyl N-acetyl-beta-D-glucosaminide as substrate at 0.1 mM incubated for 10 mins prior to substrate addition by Dixon plot analysis", "type": "protein assay", "values": [
      {"smiles": "COc1ccc(CNCCN2C(=O)c3cccc4cccc(c34)C2=O)cc1", "inhibition": "Active"}
    ]},
    {"target": "T2, Beta-N-acetyl-D-hexosaminidase-A/B (Homo sapiens, UniProt P07686+P06865)", "T2 sequence (P07686 whole entry)": "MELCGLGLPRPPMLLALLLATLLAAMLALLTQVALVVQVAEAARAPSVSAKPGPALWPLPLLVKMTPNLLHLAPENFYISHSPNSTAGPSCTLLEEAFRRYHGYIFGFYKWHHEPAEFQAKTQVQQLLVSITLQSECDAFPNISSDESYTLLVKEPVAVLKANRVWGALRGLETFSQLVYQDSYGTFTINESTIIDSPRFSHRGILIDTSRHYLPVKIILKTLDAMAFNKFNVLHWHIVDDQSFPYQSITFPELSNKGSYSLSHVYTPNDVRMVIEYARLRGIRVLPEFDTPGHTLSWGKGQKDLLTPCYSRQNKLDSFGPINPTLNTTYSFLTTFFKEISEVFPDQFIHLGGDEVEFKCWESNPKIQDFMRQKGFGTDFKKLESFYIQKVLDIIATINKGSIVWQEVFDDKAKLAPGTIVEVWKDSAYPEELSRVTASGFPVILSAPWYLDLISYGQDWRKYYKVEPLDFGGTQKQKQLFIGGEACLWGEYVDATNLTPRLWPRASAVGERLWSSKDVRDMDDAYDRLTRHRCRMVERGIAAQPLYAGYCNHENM", "T2 sequence (P06865 whole entry)": "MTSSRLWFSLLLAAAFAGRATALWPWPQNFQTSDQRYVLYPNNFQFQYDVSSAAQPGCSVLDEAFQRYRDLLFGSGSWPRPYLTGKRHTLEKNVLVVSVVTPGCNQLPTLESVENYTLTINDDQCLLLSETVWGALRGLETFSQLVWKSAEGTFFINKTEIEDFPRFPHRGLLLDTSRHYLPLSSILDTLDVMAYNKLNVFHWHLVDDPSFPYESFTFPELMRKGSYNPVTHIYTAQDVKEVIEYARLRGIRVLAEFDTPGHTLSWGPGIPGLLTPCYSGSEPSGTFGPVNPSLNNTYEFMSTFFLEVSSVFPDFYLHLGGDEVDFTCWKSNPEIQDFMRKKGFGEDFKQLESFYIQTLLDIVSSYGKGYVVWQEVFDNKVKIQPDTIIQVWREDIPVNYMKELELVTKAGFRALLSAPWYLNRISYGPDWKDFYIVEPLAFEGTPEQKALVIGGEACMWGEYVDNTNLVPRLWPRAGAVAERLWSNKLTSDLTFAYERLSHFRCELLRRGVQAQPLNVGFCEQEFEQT", "test": "Inhibition of human beta-N-acetyl-D-hexosaminidase-A/B using 4-Methylumbelliferyl N-acetyl-beta-D-glucosaminide as substrate incubated for 10 mins prior to substrate addition by spectrofluorometric analysis", "type": "protein assay", "units": {"Ki": "µM"}, "values": [
      {"smiles": "COc1ccc(CNCCN2C(=O)c3cccc4cccc(c34)C2=O)cc1", "Ki": 0.63},
      {"smiles": "COc1ccc(SCCNCCN2C(=O)c3cccc4cccc(c34)C2=O)cc1", "Ki": 1.13},
      {"smiles": "COC(=O)c1ccc(OCCNCCN2C(=O)c3cccc4cccc(c34)C2=O)cc1", "Ki": 4.2},
      {"smiles": "COc1cccc(OCCCNCCN2C(=O)c3cccc4cccc(c34)C2=O)c1", "Ki": 4.39},
      {"smiles": "COc1cccc(OCCNCCN2C(=O)c3cccc4cccc(c34)C2=O)c1", "Ki": 0.93},
      {"smiles": "NCCCCN1C(=O)c2cccc3cccc(c23)C1=O", "Ki": 61.74},
      {"smiles": "COc1ccc(OCCNCCN2C(=O)c3cccc4cccc(c34)C2=O)cc1OC", "Ki": 0.69},
      {"smiles": "COc1ccccc1OCCNCCN1C(=O)c2cccc3cccc(c23)C1=O", "Ki": 1.35},
      {"smiles": "O=C1c2cccc3cccc(c23)C(=O)N1CCNCCOc1ccc2c(c1)OCO2", "Ki": 3},
      {"smiles": "COc1ccc(OCCNCCN2C(=O)c3cccc4cccc(c34)C2=O)cc1", "Ki": 1.04},
      {"smiles": "COc1cccc(CNCCN2C(=O)c3cccc4cccc(c34)C2=O)c1", "Ki": 6.22},
      {"smiles": "COc1ccc(CNCCN2C(=O)c3cccc4cccc(c34)C2=O)cc1OC", "Ki": 4.99},
      {"smiles": "NCCN1C(=O)c2cccc3cccc(c23)C1=O", "Ki": 2.09},
      {"smiles": "NCCCN1C(=O)c2cccc3cccc(c23)C1=O", "note": "[NAPHTHALIMIDOPROPYLAMINE]", "Ki": 29.08},
      {"smiles": "COc1ccc(OCCCNCCN2C(=O)c3cccc4cccc(c34)C2=O)cc1", "Ki": 1.23},
      {"smiles": "CN(C)CCN1C(=O)c2cccc3cccc(c23)C1=O", "Ki": 2.81},
      {"smiles": "O=C1c2cccc3cccc(c23)C(=O)N1CCO", "Ki": 30.87},
      {"smiles": "O=C1c2cccc3cccc(c23)C(=O)N1CCNCCN1C(=O)c2cccc3cccc(c23)C1=O", "Ki": 3.22},
      {"smiles": "COc1ccc(NCCNCCN2C(=O)c3cccc4cccc(c34)C2=O)cc1", "Ki": 1.08},
      {"smiles": "COc1ccc(NCCNCCN2C(=O)c3cccc4cccc(c34)C2=O)c(OC)c1", "Ki": 4.63}
    ]},
    {"target": "T3, Beta-hexosaminidase subunit beta (Homo sapiens, UniProt P07686)", "T3 sequence (P07686 whole entry)": "T2 sequence (P07686 whole entry)", "test": "Competitive inhibition of human beta-N-acetyl-D-hexosaminidase-B using 4-Methylumbelliferyl N-acetyl-beta-D-glucosaminide as substrate assessed as release of 4-Methylumbelliferyl fluorophore measured for 7 mins", "units": {"IC50": "µM"}, "values": [
      {"smiles": "O=C1c2cccc3cccc(c23)C(=O)N1CCNCCN1C(=O)c2cccc3cccc(c23)C1=O", "IC50": 3.1}
    ]},
    {"target": "T4, Beta-hexosaminidase subunit alpha (Homo sapiens, UniProt P06865)", "T4 sequence (P06865 whole entry)": "T2 sequence (P06865 whole entry)", "test": "Competitive inhibition of human beta-N-acetyl-D-hexosaminidase-A using 4-Methylumbelliferyl N-acetyl-beta-D-glucosaminide as substrate assessed as release of 4-Methylumbelliferyl fluorophore measured for 7 mins", "units": {"IC50": "µM"}, "values": [
      {"smiles": "O=C1c2cccc3cccc(c23)C(=O)N1CCNCCN1C(=O)c2cccc3cccc(c23)C1=O", "IC50": 6}
    ]},
    {"target": "T1, Beta-N-acetyl-D-hexosaminidase-A/B (Homo sapiens)", "test": "Inhibition of human beta-N-acetyl-D-hexosaminidase-A/B using 4-Methylumbelliferyl N-acetyl-beta-D-glucosaminide as substrate at 50 uM incubated for 10 mins prior to substrate addition by spectrofluorometric analysis relative to control", "type": "protein assay", "units": {"inhibition": "%"}, "values": [
      {"smiles": "COc1ccc2c3c(cccc13)C(=O)N(CCN)C2=O", "inhibition": "< 50"},
      {"smiles": "NCCN1C(=O)c2ccccc2C1=O", "inhibition": "< 50"},
      {"smiles": "O=C1c2cccc3cccc(c23)C(=O)N1CCNCCOc1ccc([N+](=O)[O-])cc1", "inhibition": "< 50"},
      {"smiles": "NCCCCCCN1C(=O)c2cccc3cccc(c23)C1=O", "inhibition": "< 50"},
      {"smiles": "CN(C)c1ccc2c3c(cccc13)C(=O)N(CCN)C2=O", "inhibition": "< 50"},
      {"smiles": "COc1ccc(SCCCNCCN2C(=O)c3cccc4cccc(c34)C2=O)cc1", "inhibition": "< 50"},
      {"smiles": "O=C1c2cccc3cccc(c23)C(=O)N1CCNCCOc1ccc(Cl)cc1", "inhibition": "< 50"},
      {"smiles": "O=C1c2cccc3cccc(c23)C(=O)N1CCNCCOc1ccc(OC(F)(F)F)cc1", "inhibition": "< 50"},
      {"smiles": "NCCN1C(=O)c2cccc3c(Br)ccc(c23)C1=O", "inhibition": "< 50"},
      {"smiles": "COc1cccc(NCCNCCN2C(=O)c3cccc4cccc(c34)C2=O)c1", "inhibition": "< 50"},
      {"smiles": "NCCN1C(=O)c2cccc3cccc1c23", "inhibition": "< 50"}
    ]}
  ]
}
